The subject of data set [1] is mRNA luciferase template. Nature of the data set: Rabbit Reticulocyte Lysate Translation System, luciferase mRNA translation (Western blot). The class given is biochemical. As to conditions: same test, CoCyclen data not provided. The procedure: CoHex is capable of preventing translation of a messenger RNA (mRNA) in vitro. The ability Co(NH3)6 to inhibit translation of an mRNA luciferase template was assessed using the Rabbit Reticulocyte Lysate Translation System (Promega) according to the manufacturer's instructions. In the example discussed below, Co(NH3)6 in various concentrations was incubated with the […] for 10 minutes before the addition of the mRNA template to the translation lysate. Translated luciferase protein was run on a 10% SDSPAGE gel for 45 min at 130 V and detected by Western blot on a PVDF membrane. Proteins were detected using a streptavidinalkaline phosphatase conjugate and Western Blue substrate according to the instructions in the Transcend Non-Radioactive Translation Detection System (Promega). In FIG. 2, Lane 1 represents the incubation of 0.01 mM Co(NH3)6. Lane 2 represents the incubation of 0.02 mM Co(NH3)6. Lane 3 represents the incubation of 0.05 mM Co(NH3)6. Lane 4 represents the incubation of 0.1 mM Co(NH3)6. Lane 5 represents the incubation of 0.2 mM Co(NH3)6. Lane 6 is a positive control in which no Co(NH3)6 is added. Lane 7 is a negative control in which no translation occurs. The lanes marked M are molecular weight marker lanes. […]

The test system of data set [2] is Sindbis virus.
Description: In these assays, Sindbis virus replication was assessed by monitoring viral structural protein synthesis using a recombinant Sindbis virus construct. In this construct, the gene encoding enhanced green fluorescent protein (EGFP) was placed under the control of the same promoter sequence that drives transcription of viral structural proteins. Thus, upon Sindbis virus replication, virally infected cells produce intracellular EGFP at levels that are proportional to the level of viral structural proteins.
BHK cells (1×10^5) were plated into the wells of 24-well plates in 1 mL of complete media and incubated with increasing concentrations of Co(NH3)6 for 6 hours prior to infection with Sindbis virus at a multiplicity of infection (moi) of 5 pfu per cell. The infection was allowed to proceed for 48 hours. In preparation for analysis by flow cytometry, cells from each well were removed and pelleted, washed with PBS, and resuspended in 500 μL of PBS. One half of each sample was analyzed directly to determine the percentage of EGFP-positive cells (percent infected cells). The other half of each sample was incubated with 5 μM propidium iodide for 1 minute prior to the determination of the percentage of non-viable cells. In all cases, analysis was performed on 1×10^4 cells.
BHK cells were pretreated with Co(NH3)6 for 6 hours prior to infection with Sindbis virus. After 48 hours post infection, both the percentage of Sindbis-infected cells (as evidenced by EGFP fluorescence) and the percentage of viable cells (as determined by the exclusion of propidium iodide (PI)) were determined as a function of Co(NH3)6 concentrations.
In data set [3] the test system is Sindbis virus. Description: Sindbis virus plaque formation assay in BHK cells. The class given is cell-based, Sindbis virus (633-EGFP strain). As to conditions: 48 hours.
The nature of data set [4]: Ligand exchange with free histidine by UV-VIS and NMR. The class given is physicochemical. As to conditions: ratio 100:1 histidine to Co(NH3)6, results not shown.
In data set [5] the test system is Sindbis virus. Nature of the data set: Log(PFU) per percent cell survival, plaque counts combined with CellTiter96 survival of infected BHK cells. Type of data set: cell-based. As to conditions: with increase in concentration, FIG. 4. The source says:
Because live cell counts will decrease with increasing CoHex complex due to cytotoxicity of the cells and virus replication, but increase due to the anti-viral protection of CoHex, the plaque counts may have decreased due to the fact that there were less live cells available to count. […] The data of FIG. 3C was obtained using the CellTiter96 cell proliferation assay described above for the CoHex cytotoxicity data (i.e., with respect to FIG. 1) in which the cells were further infected with 5 plaque forming units per cell of Sindbis virus in DMEM containing 2% FBS in the absence or presence of various concentrations of Co(NH3)6, then assayed periodically.
Therefore, the fraction cell survival data of FIG. 3C was combined with the log pfu data of FIG. 3A to generate a ratio, Log(PFU) per percent cell survival, which although not a physical measure, is a general model of viruses in surviving cells.

For data set [6], the system named is Adenovirus. Description: Flow cytometry propidium iodide viability of Adenovirus-infected A549 cells. As to conditions: 6 hour pretreatment, 48 hours post infection, increasing concentration up to 0.0621 mM. The class given is cell-based. The text has this: Another example of antiviral activity is an in vitro model of a double stranded DNA (dsDNA) virus infection, Adenovirus. […] The same flow cytometry procedure discussed above for Sindbis viral infection in BHK cells was used for Adenovirus viral infection in A549 cells.
For orientation: Flow cytometry measures light scatter and fluorescence of single cells or particles in a stream.

Data set [7] relates to baby hamster kidney (BHK) cells. Description: Cytotoxicity, CellTiter96 Proliferation Assay on BHK cells. The class given is cell-based. On the procedure:
The cytotoxicity of Co(NH3)6 (Structure IV) was assessed by monitoring its ability to inhibit proliferation of baby hamster kidney (BHK) cells. BHK cells were cultured as exponentially growing subconfluent monolayers in complete growth medium, particularly Dulbecco's Modified Eagle's Medium (DMEM) supplemented with 1% (v/v) antibiotic/antimycotic agent and 10% (v/v) heat inactivated fetal bovine serum (FBS). Cells were grown in either T25 or T75 flasks (Acton, Mass.) and incubated at 37° C. under 5% CO2 atmosphere. A subculture was performed every 3-4 days.
The in vitro toxicity of Co(NH3)6 was determined using the CellTiter96® Proliferation Assay (Promega, Madison, Wis.). This quantitative calorimetric assay is based upon the enzymatic conversion of a tetrazolium salt substrate into a blue formazan product with a maximum absorbance at 570 nm. […] At the assay endpoint, the absorbance at 570 nm is directly proportional to the number of viable cells. To assess compound toxicity, BHK cells were seeded into the wells of a 96-well tissue culture microtiter plate (2×10^4 cells/well) and cultured overnight at 37° C. in a humidified atmosphere containing 5% CO2. The next day, Co(NH3)6 was diluted into tissue culture media (at final concentrations ranging from 0 to 5 mM) and incubated with the cells for 72 hrs. Triplicate wells were included for each concentration. To control for any contaminating absorbance due to the compounds, control wells containing no cells were included at each compound concentration (“no cell” wells). At the end of the 72 hour culture period, 15 μL of tetrazolium substrate was added to each well and the plate was returned to the incubator for 4 hours to allow viable cells to convert the substrate into the formazan product. At the end of the 4 hour incubation period, 100 μL of solubilization solution was added to each well and the plate was subsequently incubated overnight to completely solubilize the contents of each well to a homogeneous color. The absorbance within each of the “no cell” wells was subtracted from the absorbance measured in the corresponding wells containing cells for each concentration of Co(NH3)6.

Like-named read-outs stand apart in the source and are kept apart here.

The IC50 is the point on the concentration scale where inhibition reaches its midpoint.

For the substance Co(NH3)6, the “inhibition of protein translation relative to conventional CoCyclen structure” value in data set [1] is recorded as “about 10 times”. For the same substance, the “selectivity ratio CC50/IC50” value in data set [2] (Sindbis virus over BHK cells) is recorded as “about 25”. In data set [2] (at 0.15 mM), the “percentage of EGFP-positive (Sindbis-infected) cells” value was “distinct decrease”. Further, the “effect of timing of administration on inhibition of EGFP expression” value in data set [2] (pretreatment, co-infection or early post-treatment) is recorded as “equally effective”. In addition, the IC50 in data set [2] (read-out: IC50, inhibition of EGFP expression, 6 hours pretreatment, 48 hours post infection, moi 5) is 130 ± 40 µM; in data set [3] (BHK cells, read-out: IC50, inhibition of Sindbis virus plaque formation), ~100 µM. The “maximal inhibition of virus replication, decrease in pfu over control” value in data set [3] (at about 2.5 mM) is “about 2.5 log”. In data set [4], the “exchange of ammonia groups with free histidine” value is “does not appear to have labile ligands”. The “Log(PFU) per percent cell survival” value in data set [5] is “significant decrease in viral infection”. In addition, the “survival rate of Adenovirus-infected A549 cells” value in data set [6] is on record as “increase in survival rate”. In data set [7] (72 hrs, at 2.5 mM), the cell viability entry is given as “about 80%”. For the same substance, the CC50 in data set [7] (72 hrs, from FIG. 1, read-out: 50% cytotoxicity concentration (CC50)) is ~3200 µM. Also, the “toxicity compared with cis-Platin” value in data set [7] (FIG. 1) was “much less toxic”. In addition, the “toxicity (inhibition of cellular proliferation)” value in data set [7] (concentrations below 0.3 mM) was “no significant toxicity”; in data set [7] (concentrations below 2.5 mM), “only mildly toxic”. Moreover, in data set [7] (highest concentration tested), the “concentration of maximum toxicity” value was determined as 5000 µM.

Source of the values: patent publication US20080182835A1 (priority 2006, published 2008).
